According to article PMC11073699, “Odorant receptors for floral- and plant-derived volatiles in the yellow fever mosquito, Aedes aegypti (Diptera: Culicidae)” (PLOS ONE, 2024):
Several values for one entry are separate records, joined by “and”; a condition that tells them apart may be missing. Equal values may be shown once.

Legend:
AaegOR15 = target: T1, AaegOR15 (Aedes aegypti, UniProt A0A6B9QIR2); assay: Two-electrode voltage clamp of Xenopus laevis oocytes expressing AaegOR15/Orco (blends, unitary compounds, concentration-response); type: cell-based; details: for Raw data (Responses in nA), compounds of blend Alcohols 2: individual oocytes 1-10 (replicates); for Raw Data, concentration-response: no unit printed in this section (nA in the sections above); for Raw data (Responses in nA), phenethyl propionate versus 1-hexanol: separate set of 7 oocytes (replicates); for response of OR15 to unitary compounds: individual compounds
T1 sequence (A0A6B9QIR2 1-390): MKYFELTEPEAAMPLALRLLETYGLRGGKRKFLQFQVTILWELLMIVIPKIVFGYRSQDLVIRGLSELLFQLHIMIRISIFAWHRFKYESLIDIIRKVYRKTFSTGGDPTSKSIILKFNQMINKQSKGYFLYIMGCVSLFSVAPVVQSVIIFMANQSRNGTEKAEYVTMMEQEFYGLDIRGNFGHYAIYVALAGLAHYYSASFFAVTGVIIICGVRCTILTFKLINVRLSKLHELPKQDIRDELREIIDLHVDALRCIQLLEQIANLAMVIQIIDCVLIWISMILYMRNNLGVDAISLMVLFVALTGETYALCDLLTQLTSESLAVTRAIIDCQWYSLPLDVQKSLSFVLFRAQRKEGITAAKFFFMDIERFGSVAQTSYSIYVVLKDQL
T1 sequence (Q178U6 1-478 partner): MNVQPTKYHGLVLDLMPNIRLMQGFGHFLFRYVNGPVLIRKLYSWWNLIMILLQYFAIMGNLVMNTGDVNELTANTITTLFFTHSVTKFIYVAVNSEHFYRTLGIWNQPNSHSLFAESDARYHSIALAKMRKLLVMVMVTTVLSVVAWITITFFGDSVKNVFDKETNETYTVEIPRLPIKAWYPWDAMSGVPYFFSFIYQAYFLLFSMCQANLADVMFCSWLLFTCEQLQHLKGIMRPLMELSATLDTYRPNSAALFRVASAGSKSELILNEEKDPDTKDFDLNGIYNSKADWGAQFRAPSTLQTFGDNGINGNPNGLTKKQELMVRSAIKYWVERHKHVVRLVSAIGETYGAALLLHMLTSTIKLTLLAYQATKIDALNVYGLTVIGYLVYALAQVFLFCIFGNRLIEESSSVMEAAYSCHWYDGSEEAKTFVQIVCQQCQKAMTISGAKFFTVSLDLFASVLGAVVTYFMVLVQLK
Text: (§1) The coding regions of ten AaegOR genes of interest (S3 File) and AaegOrco were synthesized by Twist Bioscience (San Francisco, CA, USA) and cloned into the pENTR plasmid. The Gateway LR directional cloning system (Invitrogen Corp., Carlsbad, CA, USA) was utilized to subclone AaegOR coding regions into the pSP64t-RFA oocyte expression plasmid. Plasmids were purified using the GeneJet Plasmid Miniprep Kit (ThermoFisher Scientific, Waltham, MA, USA). Purified plasmids were sequenced in both directions to confirm coding regions.
(§2) Chemical compounds (S6 File) used in the deorphanization of AaegORs were purchased from Acros Organics (Morris, NJ, USA), Alfa Aesar (Ward Hill, MA, USA), and ThermoFisher Scientific (Waltham, MA, USA) at the highest purity available. Compounds were stored as 1M stocks in 100% DMSO. Serial dilutions of each compound were prepared in 10% DMSO and blended by chemical class.
(§3) pSP64t-RFA: AaegOR clones were linearized using Xbal, and cRNAs were synthesized using the mMESSAGE mMACHINE ® SP6 kit (Life Technologies, Carlsbad, CA, USA). Xenopus laevis stage V-VII oocytes purchased from Xenopus1 (Dexter, MI, USA) were stored at 18°C in Incubation medium (ND96 96 with 5% dialyzed horse serum, 50μg/mL gentamycin, 100μg/mL streptomycin, 100μg/mL penicillin, and 550μg/mL sodium pyruvate). 30nL of cRNA was injected into multiple oocytes using a microinjection syringe pump (World Precision Instruments, Sarasota, FL, USA) maintained at 18°C for 48–72 hrs. Odorant blends were perfused across individual oocytes for 10–15 seconds, held at a resting membrane potential of -80 mV using an OC-725C oocyte clamp (Warner Instruments, LLC, Hamden, CT, USA). Induced currents were measured indirectly using the two-electrode voltage clamp technique (TEVC). Following each stimulus, currents were allowed to return to baseline before further stimulation. Data was captured using the Digidata 1550 B digitizer and PClamp10 software (Molecular Devices, San Jose, CA, USA). Concentration-response curves were generated by perfusing unitary odorants over oocytes at increasing concentrations from [10^-3M] to [10^-9M]. Data were analyzed using GraphPad Prism 8 (GraphPad Software Inc., La Jolla, CA, USA). At least two biological replicates were conducted at each concentration and for each compound. Data for at least seven oocytes responding to each compound was analyzed (S7 File).

AaegOR8 = target: T2, AaegOR8 (Aedes aegypti, UniProt Q16MN0); assay: Two-electrode voltage clamp of Xenopus laevis oocytes expressing AaegOR8/Orco (blends, unitary compounds, concentration-response); type: cell-based; details: for Raw data (Responses in nA) Oocyte 1 / Raw data (Responses in nA) Oocyte 2 / Raw data (Responses in nA) Oocyte 3 / Raw data (Responses in nA) Oocyte 4 / Raw data (Responses in nA) Oocyte 5 / Raw data (Responses in nA) Oocyte 6 / Raw data (Responses in nA) Oocyte 7 / Raw data (Responses in nA) Oocyte 8: Alcohols 2 unitary compounds
T2 sequence (Q16MN0 32-422): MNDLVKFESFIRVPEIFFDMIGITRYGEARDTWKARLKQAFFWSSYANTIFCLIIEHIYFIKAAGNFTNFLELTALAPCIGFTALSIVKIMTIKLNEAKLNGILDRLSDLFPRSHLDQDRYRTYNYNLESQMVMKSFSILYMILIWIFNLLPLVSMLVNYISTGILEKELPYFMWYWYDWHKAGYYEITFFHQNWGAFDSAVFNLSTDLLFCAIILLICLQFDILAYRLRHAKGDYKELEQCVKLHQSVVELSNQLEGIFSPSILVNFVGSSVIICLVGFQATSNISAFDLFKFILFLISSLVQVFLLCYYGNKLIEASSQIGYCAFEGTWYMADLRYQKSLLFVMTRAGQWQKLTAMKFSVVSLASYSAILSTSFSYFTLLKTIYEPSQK
T2 sequence (Q178U6 1-478 partner): T1 sequence (Q178U6 1-478 partner)
Text: as §1, §2, §3

[1] = unitary compounds of Alcohols 2
[2] = AaegOR15/Orco expressing oocytes, TEVC

| SMILES | Raw data (Responses in nA), compounds of blend Alcohols 2 (AaegOR15; [1]) | Raw data (Responses in nA) Oocyte 1 (AaegOR8) | Raw data (Responses in nA) Oocyte 2 (AaegOR8) | Raw data (Responses in nA) Oocyte 3 (AaegOR8) | Raw data (Responses in nA) Oocyte 4 (AaegOR8) | Raw data (Responses in nA) Oocyte 5 (AaegOR8) | Raw data (Responses in nA) Oocyte 6 (AaegOR8) | Raw data (Responses in nA) Oocyte 7 (AaegOR8) | Raw data (Responses in nA) Oocyte 8 (AaegOR8) | response of OR15 to unitary compounds (AaegOR15; [2]) | also measured |
| --- | --- | --- | --- | --- | --- | --- | --- | --- | --- | --- | --- |
| C=CC(C)(O)CCC=C(C)C (racemic) [(+/-)-linalool] | 0.0 nA (2×) and 5.0 nA and 10.0 nA (4×) and 20.0 nA and 40.0 nA and 15.0 nA |  |  |  |  |  |  |  |  |  | Normalized response, compounds of blend Alcohols 2, Average (AaegOR15; unitary compounds of Alcohols 2, average of 10 oocytes, 1-hexanol = 100): 2.4; Normalized response, compounds of blend Alcohols 2 (AaegOR15; unitary compounds of Alcohols 2, individual oocytes 1-10, normalized to the largest response of each oocyte (1-hexanol = 100)): 0.0 (2×) and 1.4 and 1.3 and 1.5 and 1.9 and 1.7 and 5.4 and 5.5 and 5.6 |
| CCCCCCO [1-hexanol] | 50.0 nA and 90.0 nA and 725.0 nA and 780.0 nA and 70.0 nA and 670.0 nA and 1070.0 nA and 580.0 nA and 740.0 nA and 275.0 nA | 10.0 nA | 10.0 nA | 40.0 nA | 15.0 nA | 30.0 nA | 170.0 nA | 120.0 nA | 10.0 nA |  | Raw Data, concentration-response (AaegOR15; 1e-7 M, individual oocytes 1-10): 60.0 (2×) and 50.0 (2×) and 70.0 and 55.0 and 40.0 and 75.0 and 15.0 and 35.0; Raw Data, concentration-response (AaegOR15; 5e-7 M, individual oocytes 1-10): 160.0 (2×) and 155.0 and 230.0 and 165.0 and 140.0 and 60.0; Raw Data, concentration-response (AaegOR15; 1e-6 M, individual oocytes 1-10): 180.0 and 350.0 and 220.0 (2×) and 365.0 and 90.0 and 160.0; Raw Data, concentration-response (AaegOR15; 5e-6 M, individual oocytes 1-10): 360.0 and 450.0 and 465.0 and 645.0 and 445.0 and 395.0 and 590.0 and 415.0 and 190.0 and 310.0; Raw Data, concentration-response (AaegOR15; 1e-5 M, individual oocytes 1-10): 410.0 and 480.0 and 510.0 and 730.0 and 495.0 and 435.0 and 655.0 and 450.0 and 360.0; Raw Data, concentration-response (AaegOR15; 5e-5 M, individual oocytes 1-10): 440.0 and 510.0 and 525.0 and 770.0 and 515.0 and 455.0 and 665.0 and 475.0 and 370.0; Raw Data, concentration-response (AaegOR15; 0.0001 M, individual oocytes 1-10): 330.0 and 470.0 and 400.0 and 665.0 and 440.0 and 350.0 and 460.0 and 370.0 and 200.0 and 280.0; EC50 (AaegOR15; AaegOR15/Orco expressing oocytes, TEVC, concentration-response of normalized current): ~1070 nM and 1070 nM; Raw data (Responses in nA), phenethyl propionate versus 1-hexanol (AaegOR15): 30.0 nA and 100.0 nA and 180.0 nA and 120.0 nA and 110.0 nA and 90.0 nA and 95.0 nA |
| C=CC(O)CCCCC (centres unmarked) [1-octen-3-ol] | 10.0 nA and 20.0 nA (2×) and 200.0 nA and 230.0 nA and 210.0 nA and 370.0 nA and 110.0 nA and 240.0 nA and 80.0 nA | 190.0 nA | 160.0 nA | 280.0 nA | 780.0 nA | 980.0 nA | 2200.0 nA | 2720.0 nA | 240.0 nA |  | EC50 (AaegOR8; AaegOR8/Orco expressing oocytes, TEVC, concentration-response of normalized current): 2140 nM |
| C[C@@H]1CC[C@H]2C(C)(C)[C@H]3C[C@@]12CC[C@@]3(C)O [Cedrol] | 0.0 nA (3×) and 5.0 nA (2×) and 10.0 nA (3×) and 25.0 nA and 20.0 nA | 0.0 nA | 0.0 nA | 0.0 nA | 0.0 nA | 0.0 nA | 0.0 nA | 0.0 nA | 0.0 nA |  |  |
| COc1ccccc1 [anisole] | 10.0 nA and 20.0 nA (2×) and 220.0 nA and 280.0 nA and 290.0 nA and 310.0 nA and 170.0 nA and 260.0 nA and 100.0 nA | 0.0 nA | 0.0 nA | 0.0 nA | 0.0 nA | 0.0 nA | 10.0 nA | 5.0 nA | 0.0 nA |  |  |
| CC/C=C\CCO [cis-3-hexen-1-ol] | 20.0 nA and 25.0 nA (2×) and 360.0 nA and 370.0 nA and 350.0 nA and 580.0 nA and 250.0 nA and 520.0 nA and 140.0 nA | 0.0 nA | 0.0 nA | 0.0 nA | 0.0 nA | 5.0 nA | 0.0 nA | 10.0 nA | 0.0 nA | additional responses |  |
| OC1CCCCC1 [cyclohexanol] | 5.0 nA and 10.0 nA and 30.0 nA and 55.0 nA (2×) and 0.0 nA and 40.0 nA (2×) and 80.0 nA and 35.0 nA | 0.0 nA | 0.0 nA | 0.0 nA | 0.0 nA | 0.0 nA | 0.0 nA | 0.0 nA | 0.0 nA |  |  |
| CCCCCC=O [hexanal] | 0.0 nA (2×) and 10.0 nA and 80.0 nA and 85.0 nA and 110.0 nA (2×) and 160.0 nA and 115.0 nA and 40.0 nA |  |  |  |  |  |  |  |  |  |  |
| CCC(=O)OCCc1ccccc1 [phenethyl propionate] |  |  |  |  |  |  |  |  |  | additional responses | Secondary Ligand (AaegOR15; AaegOR15, secondary ligand identified during the functional characterizations): phenethyl propionate; Normalized response, phenethyl propionate, Average (AaegOR15; average of 7 oocytes, relative to 1-hexanol): 56.0; Raw data (Responses in nA), phenethyl propionate versus 1-hexanol (AaegOR15): 10.0 nA and 100.0 nA and 90.0 nA and 70.0 nA (2×) and 40.0 nA (2×) |
| CCC/C=C/CO [trans-2-hexen-1-ol] | 30.0 nA (2×) and 40.0 nA and 310.0 nA and 480.0 nA (2×) and 375.0 nA and 270.0 nA and 440.0 nA and 135.0 nA | 0.0 nA | 0.0 nA | 0.0 nA | 0.0 nA | 0.0 nA | 0.0 nA | 0.0 nA | 0.0 nA | additional responses |  |
